How the values were obtained:
Type in all cases: in vivo
Conditions in all cases: evaluated after 13 days
[1] = test system: Ipomoea hederacea (IPOHE); assay: Pre-emergence Test, Ipomoea hederacea (IPOHE)
[2] = test system: Amaranthus retoflexus (AMARE); assay: Post-emergence Test, Amaranthus retoflexus (AMARE); parameters: key to percentage damage caused to the plant, AMARE (five-point scale): 5=81-100%, 4=61-80%, 3=41-60%, 2=21-40%, 1=0-20% damage
Outline: (§1)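 Scores are percentage plant damage on a 1–5 scale (1=0-20%, 2=21-40%, 3=41-60%, 4=61-80%, 5=81-100%), read 13 days after treatment. Pots received a spray at 1000 g/ha unless otherwise stated, formulated in acetone/water (50:50) containing 0.5% Tween 20.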

[3] = test system: Ipomoea hederacea (IPOHE); assay: Post-emergence Test, Ipomoea hederacea (IPOHE); parameters: key to percentage damage caused to the plant, IPOHE (five-point scale): 5=81-100%, 4=61-80%, 3=41-60%, 2=21-40%, 1=0-20% damage
Outline: as §1

Zea mays (ZEAMX) [4] = assay: Pre-emergence Test, Zea mays (ZEAMX)
[5] = test system: Amaranthus palmeri (AMAPA); assay: Pre-emergence Test, Amaranthus palmeri (AMAPA)
[6] = test system: Echinochloa crus-galli (ECHCG); assay: Post-emergence Test, Echinochloa crus-galli (ECHCG); parameters: key to percentage damage caused to the plant, ECHCG (five-point scale): 5=81-100%, 4=61-80%, 3=41-60%, 2=21-40%, 1=0-20% damage
Outline: as §1

[7] = test system: Amaranthus palmeri (AMAPA); assay: Post-emergence Test, Amaranthus palmeri (AMAPA); parameters: key: 5=81-100%, 4=61-80%, 3=41-60%, 2=21-40%, 1=0-20% damage
Outline: as §1

Zea mays (ZEAMX) [8] = assay: Post-emergence Test, Zea mays (ZEAMX); parameters: key to percentage damage caused to the plant, ZEAMX (five-point scale): 5=81-100%, 4=61-80%, 3=41-60%, 2=21-40%, 1=0-20% damage
Outline: as §1

[9] = test system: Amaranthus retoflexus (AMARE); assay: Pre-emergence Test, Amaranthus retoflexus (AMARE)
[10] = test system: Echinochloa crus-galli (ECHCG); assay: Pre-emergence Test, Echinochloa crus-galli (ECHCG)
Setaria faberi (SETFA) = assay: Post-emergence Test, Setaria faberi (SETFA); parameters: key to percentage damage caused to the plant, SETFA (five-point scale): 5=81-100%, 4=61-80%, 3=41-60%, 2=21-40%, 1=0-20% damage
Outline: as §1

SMILES | Pre-emergence Test IPOHE, percentage damage caused to the plant (five-point scale) ([1]; 250 g/Ha (*)) | percentage damage caused to the plant, AMARE (five-point scale) ([2]; 250 g/Ha) | percentage damage caused to the plant, IPOHE (five-point scale) ([3]; 250 g/Ha) | Pre-emergence Test ZEAMX, percentage damage caused to the plant (five-point scale) (Zea mays (ZEAMX) [4]; 250 g/Ha (*)) | Pre-emergence Test AMAPA, percentage damage caused to the plant (five-point scale) ([5]; 250 g/Ha (*)) | percentage damage caused to the plant, ECHCG (five-point scale) ([6]; 250 g/Ha) | percentage damage caused to the plant, AMAPA (five-point scale) ([7]; 250 g/Ha) | percentage damage caused to the plant, ZEAMX (five-point scale) (Zea mays (ZEAMX) [8]; 250 g/Ha) | Pre-emergence Test AMARE, percentage damage caused to the plant (five-point scale) ([9]; 250 g/Ha (*)) | Pre-emergence Test ECHCG, percentage damage caused to the plant (five-point scale) ([10]; 250 g/Ha (*)) | percentage damage caused to the plant, AMARE (five-point scale) ([2]; 1000 g/ha) | percentage damage caused to the plant, SETFA (five-point scale) (Setaria faberi (SETFA); 1000 g/ha) | percentage damage caused to the plant, IPOHE (five-point scale) ([3]; 1000 g/ha) | percentage damage caused to the plant, AMAPA (five-point scale) ([7]; 1000 g/ha) | percentage damage caused to the plant, ZEAMX (five-point scale) (Zea mays (ZEAMX) [8]; 1000 g/ha) | percentage damage caused to the plant, ECHCG (five-point scale) ([6]; 1000 g/ha) | other results
CCn1c(Cn2ncc(C(F)(F)F)n2)cc(=O)c(C(=O)O)c1-c1ccc(Cl)c(Cl)c1 [Compound 189, 2-(3,4-dichlorophenyl)-1-ethyl-4-oxo-6-[[4-(trifluoromethyl)triazol-2-yl]methyl]pyridine-3-carboxylic acid] | 3 (3=41-60%) | 4 (4=61-80%) | 4 (4=61-80%) | 4 (4=61-80%) | 2 (2=21-40%) | 4 (4=61-80%) | 5 (5=81-100%) | 4 (4=61-80%) | 2 (2=21-40%) | 5 (5=81-100%) | – | – | – | – | – | – | –
CCn1c(Cn2ccc(OCC(F)(F)F)n2)cc(=O)c(C(=O)O)c1-c1ccc(Cl)c(Cl)c1 [Compound 185, 2-(3,4-dichlorophenyl)-1-ethyl-4-oxo-6-[[3-(2,2,2-trifluoroethoxy)pyrazol-1-yl]methyl]pyridine-3-carboxylic acid] | 1 (1=0-20%) | 1 (1=0-20%) | 3 (3=41-60%) | 0 | 1 (1=0-20%) | 3 (3=41-60%) | 1 (1=0-20%) | 1 (1=0-20%) | 1 (1=0-20%) | 1 (1=0-20%) | 3 (3=41-60%) | 4 (4=61-80%) | 3 (3=41-60%) | 3 (3=41-60%) | 4 (4=61-80%) | – | Pre-emergence Test IPOHE, percentage damage caused to the plant (five-point scale) ([1]; 1000 g/ha): 3 (3=41-60%); Pre-emergence Test ZEAMX, percentage damage caused to the plant (five-point scale) (Zea mays (ZEAMX) [4]; 1000 g/ha): 3 (3=41-60%); Pre-emergence Test AMAPA, percentage damage caused to the plant (five-point scale) ([5]; 1000 g/ha): 2 (2=21-40%); Pre-emergence Test AMARE, percentage damage caused to the plant (five-point scale) ([9]; 1000 g/ha): 3 (3=41-60%); Pre-emergence Test ECHCG, percentage damage caused to the plant (five-point scale) ([10]; 1000 g/ha): 5 (5=81-100%)
CCn1c(Cn2cnc(C#N)c2C#N)cc(=O)c(C(=O)O)c1-c1ccc(Cl)c(Cl)c1 [Compound 113, 2-(3,4-dichlorophenyl)-6-[(4,5-dicyanoimidazol-1-yl)methyl]-1-ethyl-4-oxo-pyridine-3-carboxylic acid] | – | – | – | – | – | – | – | – | – | – | 1 (1=0-20%) | 1 (1=0-20%) | 0 | 1 (1=0-20%) | 1 (1=0-20%) | 1 (1=0-20%) | –
CCn1c(Cn2cc3cc(Cl)ccc3n2)cc(=O)c(C(=O)O)c1-c1ccc(Cl)c(Cl)c1 [Compound 99, 6-[(5-chloroindazol-2-yl)methyl]-2-(3,4-dichlorophenyl)-1-ethyl-4-oxo-pyridine-3-carboxylic acid] | – | 0 | 0 | – | – | 1 (1=0-20%) | 0 | 0 | – | – | 0 | 0 | 1 (1=0-20%) | 0 | 1 (1=0-20%) | 0 | percentage damage caused to the plant, SETFA (five-point scale) (Setaria faberi (SETFA); 250 g/Ha): 0

Reference: US20250098679A1, “HERBICIDAL PYRIDONE DERIVATIVES” (SYNGENTA CROP PROTECTION AG, priority 2021, published 2025)
